Data published in patent US9609884B2, “Anti-fatigue agent” (Suntory Holdings Limited, priority 2007, dated 2017).

Experiments:
Type in all cases: in vivo
[1] = system: Balb/c male mice kept under water immersion stress; experiment: Water immersion sleep disturbed test (forced swimming under weight load); conditions: once a day for two days during water immersion, weight 8% of body weight
Procedure: The first thing to do is measure the swimming time in a water immersion sleep disturbed test. Mice that have been kept in an environment such as water immersion where they are unable to have a good sleep or take a rest position so they cannot have a physical or mental rest are forced to swim under a weight load and the time it takes for them to have their nose sunk in the water for a period of ten seconds or longer is measured to confirm the degree of their fatigue. Since this is an animal model for physical or mental fatigue, an extension of the swimming time as achieved by administering it with the test substance means the verification of resistance to fatigue, as exemplified by relief of physical and/or mental fatigue, maintenance of physical vigor in the tired model (increase in body strength), or improvement of stamina. A sesamin/episesamin mixture (sesamin:episesamin=1:1 in weight ratio) was used as a test sample. Effectiveness against fatigue was evaluated by the following partial modification of the method of Tanaka et al. (Neuroscience, Let. 352, 159-162, 2003). The test animals Balb/c male mice (8-week old) were divided into five groups, each consisting of 12 animals and having the same average body weight. Four of those five groups were water immersion groups, which were kept in breeding cages, not on paper chips but in tap water (23° C.) supplied to a depth of 7 mm, thereby disturbing sleep of the mice. […] After two days, each mouse was fitted with a weight at the tail which corresponded to 8% of its body weight, and was allowed to swim in a water tank of 18 cm^φ that was filled with water to a depth of 30 cm; the time it took for each mouse to have its nose sunk in water for a period of at least 10 seconds was measured. The mice in the groups kept under water immersion stress could swim for a shorter period than the mice in the normally kept group and the degree by which the shortening of the swimming time could be controlled in the sesamin administered groups was measured to evaluate the effectiveness of sesamin against fatigue. […]

[2] = system: Sprague Dawley male rats under exercise stress; experiment: Forced exercise test, sesamin given after treadmill exercise stress (recovery from fatigue); conditions: 180 mg/kg oral in olive oil after 3-hr treadmill exercise stress; versus control group under exercise stress
Procedure: The second thing to do is measure the motor activity in a forced exercise test. Rats administered with the test substance are forced to have exercise on a treadmill and, thereafter, the motor activity of the animal in the dark period is measured. Since this is an animal model for fatigue from exercise (physical fatigue), an increase in the motor activity as achieved by administering it with the test substance means the verification of resistance to fatigue.
The test sample used in Example 2 was the same sesamin as in Example 1.
Sprague Dawley male rats (6-week old) were acclimatized in a test environment for a week and the animals that had shown normal growth were subjected to the test. One day before the start of the test, the rats were divided into five groups each consisting of eight animals. On the day of the test, all animals were starved from the morning and one group of rats was assigned as a resting group that was not to be subjected to exercise stress. […] Thereafter, the animals were transferred to an automatograph (Supermex manufactured by MUROMACHI KIKAI CO., LTD.) and their motor activity in the dark period was measured.

[3] = system: Balb/c male mice kept under water immersion stress; experiment: Measuring fatigue-causing substances (ketone bodies) in the blood of mice under water immersion stress; conditions: 50 mg/kg oral once a day for three days during water immersion; versus control group under water immersion stress (olive oil)
Source text: The third thing to do is measure the amount of fatigue-causing substances in the blood. This involves administering the test substance to check to see if it has an action for controlling an increase in the blood concentration of fatigue-causing substances under a physical or mental stress. Although no substances have been identified to be causative of fatigue, one class of candidates may be ketone bodies (collectively referring to acetoacetate, 3-hydroxybutyrate, and acetone). Ketone bodies are known to be metabolites that are produced when free fatty acids […] from the fat tissue on account of lowered glucose availability undergo β-oxidation. If the production of ketone bodies is enhanced beyond their utilization in the extrahepatic tissues, ketone bodies accumulate in the blood, leading to ketosis. Actoacetate and 3-hydroxybutyrate are moderately strong acids, so if ketone bodies accumulate in amounts exceeding the buffering action of the living body, the blood becomes acidic, causing a condition known as acidosis which, in turn, produces a feeling of weariness (Takanori Yamamoto, Igaku no ayumi (Progress in Medicine), Vol. 204, No. 5:325-329, 2003). […]
After three days, blood was drawn from each mouse and the ketone bodies in the serum were measured by the enzyme method with a biochemical automatic analyzer (Model 7070 of Hitachi, Ltd.)

[4] = system: Sprague Dawley male rats under exercise stress; experiment: Forced exercise test, sesamin-mixed feed for a week before treadmill exercise stress (prevention of fatigue); conditions: versus exercise fatigue control group
Procedure: The second thing to do is measure the motor activity in a forced exercise test. Rats administered with the test substance are forced to have exercise on a treadmill and, thereafter, the motor activity of the animal in the dark period is measured. Since this is an animal model for fatigue from exercise (physical fatigue), an increase in the motor activity as achieved by administering it with the test substance means the verification of resistance to fatigue. The test sample used in Example 3 was the same sesamin as in Example 1. Sprague Dawley male rats (10-week old) were acclimatized in a test environment for a week and the animals that had shown normal growth were subjected to the test. The rats were divided into three groups each consisting of eight animals. Then, AI[…] was mixed with sesamin to give final concentrations of 0, 0.02, and 0.1% (w/w) to prepare feeds and the rats were let to ingest the respective feeds ad libitum for a week. Thereafter, all animals were given a 3-hr exercise stress by means of a treadmill-type forced walking apparatus (MK-680 manufactured by MUROMACHI KIKAI CO., LTD.) After the end of exercise stress application, the animals were transferred to an automatograph (Supermex manufactured by MUROMACHI KIKAI CO., LTD.) and their motor activity in the dark period was measured.

c1cc2c(cc1[C@H]1OC[C@H]3[C@@H]1CO[C@@H]3c1ccc3c(c1)OCO3)OCO2 [sesamin]
swimming time (control group kept under water immersion stress taken as 100%) ([1]; 12.5 mg/kg oral): 150% | swimming time (control group kept under water immersion stress taken as 100%) ([1]; 50 mg/kg oral): 300% | swimming time (control group kept under water immersion stress taken as 100%) ([1]; 200 mg/kg oral): 133% | motor activity in the dark period [2]: an increase in the motor activity was confirmed | concentration of ketone bodies in the serum [3]: significant control of the increase in the concentration of ketone bodies | motor (physical) activity in the dark period ([4]; mixed feed containing 0.02% (w/w) sesamin ad libitum for a week before 3-hr exercise stress): almost the same physical activity | motor (physical) activity in the dark period ([4]; mixed feed containing 0.1% (w/w) sesamin (about 80 mg/kg) ad libitum for a week before 3-hr exercise stress): enhanced physical activity
